Measured values: PubChem BioAssay (NCI)
“And” between values parts separate entries of the source, which are not always exact repeats. Equal entries are not always repeated.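 Assay format: 96-well plates, 48-hour exposure. The concentration for 50% growth inhibition is given as GI50. TGI is the concentration that stops growth completely.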

Legend:
Test in all cases: NCI tumour cell line growth inhibition, 48 h
HCT-116 colon = system: HCT-116 colon
SNB-75 CNS = system: SNB-75 CNS
SF-295 CNS = system: SF-295 CNS
786-0 renal = system: 786-0 renal
HOP-92 NSCLC = system: HOP-92 NSCLC
DU-145 prostate = system: DU-145 prostate
ACHN renal = system: ACHN renal
SF-268 CNS = system: SF-268 CNS
SK-MEL-5 melanoma = system: SK-MEL-5 melanoma
MDA-MB-231 breast = system: MDA-MB-231 breast

Row | Compound | GI50 (HCT-116 colon) | TGI (HCT-116 colon) | GI50 (SNB-75 CNS) | TGI (SNB-75 CNS) | GI50 (SF-295 CNS) | TGI (SF-295 CNS) | GI50 (786-0 renal) | TGI (786-0 renal) [µM] | GI50 (HOP-92 NSCLC) | TGI (HOP-92 NSCLC) | GI50 (DU-145 prostate) | TGI (DU-145 prostate) [µM] | GI50 (ACHN renal) | TGI (ACHN renal) [µM] | GI50 (SF-268 CNS) | TGI (SF-268 CNS) | GI50 (SK-MEL-5 melanoma) | TGI (SK-MEL-5 melanoma) | GI50 (MDA-MB-231 breast) | TGI (MDA-MB-231 breast)
1 | CNC(=O)c1c(NC(=O)c2ccc(C(C)(C)C)cc2)sc2c1CCC(=O)C2 | 0.0971 µM | 1.4 µM | 0.343 µM | 1.44 µM | 0.334 µM | 1.35 µM | 0.434 µM | 1.83 | 0.358 µM | 2.03 µM | 1.44 µM | 3.68 | 0.203 µM | 0.922 | 0.414 µM | 1.85 µM | 0.349 µM | 1.33 µM | 0.3 µM | 1.13 µM
2 | COc1ncc(Nc2ncc([C@@H](C)N3CCN(S(C)(=O)=O)CC3)cc2-c2nc(C)nc(N)n2)cc1F | 1.87 µM | > 100 µM | < 0.01 µM | 0.0585 µM | 0.0287 µM | 1.85 µM | 0.0192 µM | 2.86 | < 0.01 µM | 1.19 µM | 0.183 µM | > 100 | 0.0651 µM | > 100 | 0.452 µM | > 100 µM | 2.09 µM | 9.04 µM | 1.59 µM | 13.9 µM
3 | COc1cc(Nc2ncc(-c3ccccc3)o2)cc(OC)c1 | > 25 µM | > 25 µM | 3.19 µM | > 25 µM | > 25 µM | > 25 µM | > 25 µM | > 25 | > 25 µM | > 25 µM | > 25 µM | > 25 | 17.4 µM | > 25 | > 25 µM | > 25 µM | > 25 µM | > 25 µM | > 25 µM | > 25 µM
4 | COc1ccc(/C(COc2ccc3oc(-c4ccccc4)cc(=O)c3c2)=N\O)cc1 | < 0.005 µM | 9.36 µM | 1.3 µM | 23.2 µM | < 0.005 µM | 0.154 µM | 0.855 µM | > 35.6 | > 31.2 µM | > 50 µM | 2.27 µM | 13.4 | 0.331 µM | 20 | 0.162 µM | 1.36 µM | 0.93 µM | 7.98 µM | 0.182 µM | 9.17 µM
5 | CC1C(C)N(C(=O)CCl)c2ccccc2N1C(=O)CCl (stereo not drawn) | 0.185 µM | 0.406 µM | 1.36 µM | 2.84 µM | 1.45 µM | 3.06 µM | 0.937 µM | 3.02 | 0.709 µM | 1.84 µM | 0.472 µM | 1.8 | 0.309 µM | 0.783 | 0.582 µM | 2.11 µM | 1.27 µM | 2.85 µM | 1.18 µM | 3.6 µM
6 | CCN(Cc1ccccc1)C1CCN(Cc2cc(Br)ccc2O)CC1 | 23.2 µM | > 100 µM | 27.5 µM | > 100 µM | 25.6 µM | > 100 µM | 35.9 µM | > 100 | 10.4 µM | > 100 µM | > 100 µM | > 100 | 79.7 µM | > 100 | 59.7 µM | > 100 µM | 15 µM | 28.9 µM | 31.6 µM | > 100 µM
7 | COc1ccc(Cc2coc3ccccc3c2=O)cc1OC | – | > 100 µM | – | > 100 µM | – | > 100 µM | – | > 100 | – | > 100 µM | – | > 100 | – | > 100 | – | > 100 µM | – | 67.8 µM | – | > 100 µM
8 | CC1=C(c2ccccc2)C(O)(c2ccccc2)C(C)C1=O (stereo not drawn) | 9.95 µM | > 100 µM | 10.7 µM | 42.8 µM | 12.7 µM | 62.6 µM | 18.9 µM | > 100 | 4.07 µM | 65 µM | 27.2 µM | > 100 | 35.6 µM | > 100 | 27.4 µM | > 100 µM | 14 µM | > 100 µM | 14 µM | > 100 µM
9 | CNC(=O)c1cc(Oc2ccc(NC(=O)Nc3ccc(Cl)c(C(F)(F)F)c3)c(F)c2)ccn1 | 0.944 µM and 0.792 µM | 10.8 µM and 8.8 µM | 1.71 µM and 1.67 µM | 7.01 µM and > 10 µM | 2.82 µM and 2.29 µM | 19.8 µM and > 10 µM | 3.39 µM and 3.06 µM | > 83.2 | 0.822 µM and 0.74 µM | 5.55 µM and 5.15 µM | 3.46 µM and 3.96 µM | > 100 | 3.29 µM and 2.88 µM | > 44.9 | 2.93 µM and 3.02 µM | 14 µM and > 10 µM | 1.5 µM and 1.35 µM | 2.94 µM and 3.16 µM | 1.22 µM and 1.26 µM | 4.44 µM and 4.92 µM
10 | NC(=O)c1cc([N+](=O)[O-])c(Cl)c([N+](=O)[O-])c1Cl | 0.228 µM | 0.582 µM | 1.77 µM | 3.69 µM | 3.29 µM | 12.1 µM | 1.44 µM | 2.87 | 1.84 µM | 3.45 µM | 1.55 µM | 2.88 | 1.63 µM | 3.71 | 1.64 µM | 3.07 µM | 1.71 µM | 3.11 µM | 1.79 µM | 3.39 µM
11 | CC1CC[P+](c2ccccc2)(c2ccccc2)c2c1ccc1ccccc21 (stereo not drawn) | – | > 39.5 µM | – | 6.05 µM | – | 20.3 µM | 11 µM | 43.4 | – | 5.43 µM | 13.3 µM | > 100 | – | > 81.5 | – | > 100 µM | – | 5.16 µM | 8.98 µM | > 45 µM
12 | Nc1ccc(C(=O)N/C(=C\c2cccc([N+](=O)[O-])c2)c2nc3[nH]c(=S)[nH]c(=O)c3[nH]2)cc1 | – | > 100 µM | – | 32.1 µM | – | > 96.7 µM | – | > 93.1 | – | 64.9 µM | – | > 100 | – | > 100 | – | > 100 µM | – | > 100 µM | – | > 94.5 µM
13 | O=C(CCCN1CCC(O)(c2ccc(Cl)cc2)CC1)c1ccc(F)cc1 | – | 33.6 µM | – | 68.9 µM | – | 31.5 µM | – | 39.8 | – | > 100 µM | – | > 100 | – | > 100 | – | > 100 µM | – | 29.7 µM | – | 51.5 µM
14 | Cc1ccc(/C=N/Nc2nc(Nc3ccccc3)nc(-n3nc(C)cc3C)n2)cc1 | 3.18 µM | 11.7 µM | 10.9 µM | > 100 µM | 2.74 µM | 14.4 µM | 3.7 µM | 36.9 | 2.28 µM | 10.9 µM | 5.45 µM | > 100 | 4.44 µM | 56.6 | 4.42 µM | > 100 µM | 1.77 µM | 7.44 µM | 6.44 µM | > 100 µM
15 | Cc1cccc2nc3ccccc3c(Nc3ccc(NS(C)(=O)=O)cc3)c12 | 3.67 µM | 15.9 µM | 13 µM | 52.2 µM | 5.2 µM | 47.5 µM | 5.03 µM | 16.6 | 2.17 µM | 11.1 µM | 3.76 µM | 22.6 | 2.69 µM | 11 | 10.2 µM | 30.2 µM | 4.91 µM | 17.5 µM | 9.57 µM | 24.2 µM
16 | CCC(C)[C@H](NC(=O)Nc1cc(C(F)(F)F)cc(C(F)(F)F)c1)C(=O)N[C@@H](Cc1cn(C)cn1)C(=O)OC (stereo partly drawn) | 0.606 µM | 1.21 µM | 0.924 µM | 1.82 µM | 1.36 µM | 1.95 µM | 1.19 µM | 1.88 | 1.31 µM | 1.89 µM | 1.07 µM | 1.83 | 1.4 µM | 2.01 | 0.61 µM | 1.16 µM | 0.59 µM | 1.27 µM | 0.619 µM | 1.12 µM
17 | COc1ccc(CN2c3ccccc3Sc3ccccc32)c(C(F)(F)F)c1 | 0.419 µM | 21.8 µM | 0.241 µM | > 100 µM | 0.32 µM | 2.67 µM | 9.05 µM | > 100 | 0.227 µM | 44.9 µM | 2.08 µM | > 100 | 0.666 µM | > 100 | 10.9 µM | 98.5 µM | 0.5 µM | 15.7 µM | 3.05 µM | 58.6 µM
18 | CCOCCCn1c2c(c3c(O)cccc31)C(=O)c1ccccc1-2 | 16.6 µM | 33.5 µM | 20.5 µM | 50.3 µM | 21.4 µM | 55.3 µM | 22 µM | 51.9 | 16.8 µM | 43.3 µM | 33.3 µM | > 100 | 20.6 µM | 55 | 18.1 µM | 50.3 µM | 15.8 µM | 29.8 µM | 12.8 µM | 35.3 µM
19 | COc1ccc2c(c1OC)CO[C@@H]2[C@H]1c2c(cc3c(c2OC)OCO3)CCN1S(=O)(=O)c1cn(C)cn1 | 0.494 µM | > 100 µM | 1.6 µM | > 100 µM | 1.18 µM | > 100 µM | 0.968 µM | > 100 | 0.783 µM | 87.4 µM | 2.77 µM | 12 | 1.73 µM | > 100 | 5.64 µM | > 100 µM | 0.444 µM | 6.24 µM | 4.49 µM | > 100 µM
